Data taken from patent US10221426B2, “Constitutively active PYR/PYL receptor proteins for improving plant stress tolerance” (The Regents of the University of California, priority 2009, dated 2019).

System: PYR/PYL receptors PYR1, PYL2, PYL3, and/or PYL4
Assay: Yeast two hybrid agonist screens (conventional and halo assays; compound library and plant extracts)
Format: cell-based, Arabidopsis
Text: We next investigated whether other compounds besides ABA and pyrabactin could act as agonists of PYR/PYL proteins. Yeast two hybrid strains expressing ABA-receptors and type 2 C protein phosphatases in the appropriate vectors can be used to monitor activation of ABA receptors. These yeast strains therefore create a facile screening system for the identification of cell permeant compounds that act as ABA agonists, i.e. compounds that promote binding of PYR/PYL family members to their protein phosphatase targets. […]
To conduct these agonist assays, screening compounds are added to microtiter wells and appropriate yeast growth media are added. The wells are then seeded with PYR/PYL-PP2C strains and agonist activity is monitored after growth of the strains on the chemical-containing medium. […]
Using a combination of the conventional and halo assays as described above, 65,000 screening compounds were tested for activation of PYR1, PYL2, PYL3 or PYL4 expressing yeast two hybrid strains. Hit compounds that activated any of the yeast strains were retested on all 4 yeast strains and activity assessed qualitatively using X-gal staining assays. […]

copaenoic acid
activation of PYR/PYL yeast two hybrid strains: naturally occurring ABA agonist
